In ChEMBL document CHEMBL1156829 (Proc Natl Acad Sci U S A, 2008):

What was measured:
Plasmodium falciparum [1] = assay: NOVARTIS: Inhibition of Plasmodium falciparum W2 (drug-resistant) proliferation in erythrocyte-based infection assay; format: functional, organism-based; conditions: read-out: EC50
Plasmodium falciparum [2] = assay: NOVARTIS: Inhibition of Plasmodium falciparum 3D7 (drug-susceptible) proliferation in erythrocyte-based infection assay; format: functional, organism-based
[3] = NOVARTIS: Cytotoxicity against human hepatocellular carcinoma cell line (Huh7); format: toxicity, cell-based, Huh-7; conditions: Huh7 cells (hepatocellular carcinoma cell line)

Row | Structure (SMILES) | EC50 (Plasmodium falciparum [1]; Plasmodium falciparum, W2) [nM] | EC50 (Plasmodium falciparum [2]; Plasmodium falciparum, 3D7) [nM] | CC50 [3] [nM] | EC50 (Plasmodium falciparum [1]) [nM] | EC50 (Plasmodium falciparum [2]) [nM]
1 | COc1ccc2nc(C)cc(Nc3cccc(Cl)c3)c2c1 | 1100 | 371 | 50200 |  | 
2 | COCCn1c(=S)[nH]c2cc(C(=O)NCCc3ccc(S(N)(=O)=O)cc3)ccc2c1=O | > 1250 | > 1080 | > 10000 |  | 
3 | CCOc1ccc(C2=NC3(CCN(C(C)C)CC3)NC(c3cc(Cl)ccc3O)C2)cc1 (centres undefined) | 5480 | 7180 | 59900 |  | 
4 | CCCNc1nc(OC(C(F)(F)F)C(F)(F)F)nc(OC(C(F)(F)F)C(F)(F)F)n1 | > 702 | > 1580 | > 10000 |  | 
5 | Cc1ccc(N2C(=O)CC(NCCCN3CCOCC3)C2=O)cc1 (centres undefined) | 1610 | > 1290 | > 10000 |  | 
6 | CC(=O)N(C)C1=C(N2CCOCC2)C(=O)c2ccccc2C1=O | 288 | 254 | 590 |  | 
7 | CN1CCN=C1c1ccc(NC(=O)c2ccc(C(=O)Nc3ccc(C4=NCCN4C)cc3)cc2)cc1 | 12 | 91.1 | > 10000 |  | 
8 | CCCc1c(CC)c(=N)c2ccccc2n1C | 1140 | 762 | > 100000 |  | 
9 | CC(C)NCC(O)Cn1c2ccc(Cl)cc2c2cc(Cl)ccc21 (centres undefined) | 38.9 | 183 | 4870 |  | 
10 | CC(C)(C)NC(=O)C(c1ccc(F)cc1)N(CCCN1CCOCC1)C(=O)c1ccc(-c2ccccc2)[nH]1 (centres undefined) | 562 | 1010 | > 10000 |  | 
11 | Cc1cccc2cc(C(c3nnnn3C3CCCC3)N3CCCC4(CCCCC4)C3)c(=O)[nH]c12 (centres undefined) | > 209 | > 1250 | > 10000 |  | 
12 | CCCCCN(CC(=O)Nc1cc(C(C)(C)C)nn1-c1ccc(Cl)c(Cl)c1)C(=O)c1ccc2c(c1)OCO2 | 966 | 1040 | > 10000 |  | 
13 | COC(=O)C1=C(C)N(c2ccc(N(C)C)cc2)C(C)=C(C(=O)OC)C1c1ccc(Br)cc1 | > 1220 | > 1250 | > 10000 |  | 
14 | CO[C@H]1C[C@H](C)Cc2cc(O)cc(c2)NC(=O)C(C)=CCC[C@H](OC)[C@@H](OC(N)=O)C(C)=CC(C)[C@H]1O (some centres undefined) | 26.7 | > 1250 | > 10000 |  | 
15 | CCOC(=O)C1=C(C)NC2=C(C(=O)CC(c3ccc(OC)c(OC)c3)C2)C1c1ccc(SC)cc1 (centres undefined) | 127 | 302 | > 100000 |  | 
16 | O=C1CN(C(=O)CCC2CCCCC2)C(c2ccccc2)c2cc(F)ccc2N1 (centres undefined) | 1300 | 1070 | 33200 |  | 
17 | N=c1n(CCN2CCCC2)c2ccccc2n1CC(O)c1ccc(Cl)c(Cl)c1 (centres undefined) | 257 | 83 | 10900 |  | 
18 | CCCC(=O)N(CCCC(C)Nc1cc(OC)cc2cccnc12)Cc1ccc(F)cc1 (centres undefined) | 71.4 | 385 | > 10000 |  | 
19 | COc1cc2nc(C3CCC3)n(NC(=O)c3cccc(F)c3)c(=O)c2cc1OC | > 1060 | > 1250 | > 10000 |  | 
20 | CC(C)(C)c1ccc(NC(=O)CN2CCCCC2)cc1 | > 8770 | > 12500 | 49700 |  | 
21 | CN1CCN(c2cc(-c3cccnc3)nc(-c3ccncc3)n2)CC1 | 656 | 588 | > 9550 |  | 
22 | O=C(c1ccncc1)N1CCN(Cc2ccc3c(c2)OCO3)CC1 | 176 | 964 | > 10000 |  | 
23 | CCN1CCC(NCCC(c2ccccc2)c2ccccc2)CC1 | 66 | 280 | 3610 |  | 

Row | Structure (SMILES) | EC50 (Plasmodium falciparum [1]; Plasmodium falciparum, W2) [nM] | EC50 (Plasmodium falciparum [2]; Plasmodium falciparum, 3D7) [nM] | CC50 [3] [nM] | EC50 (Plasmodium falciparum [1]) [nM] | EC50 (Plasmodium falciparum [2]) [nM]
24 | C[n+]1c(/C=C/c2ccc(Cl)c(Cl)c2)ccc2ccccc21 | 390 | 295 | > 10000 |  | 
25 | Cc1ccccc1/C=C1/SC(=Nc2ccccc2)NC1=O | > 1420 | > 528 | > 10000 |  | 
26 | CN1CCN(c2nc(NN=Cc3ccc(O)cc3)nc(Nc3ccc([N+](=O)[O-])cc3)n2)CC1 | 1340 | > 1250 | > 10000 |  | 
27 | O=C(C1CC1)N1CCc2cc(Br)cc(S(=O)(=O)N3CCCCCC3)c21 | 834 | 1430 | > 100000 |  | 
28 | O=C(CSc1ccc(Cl)cc1)NN=C1C(=O)Nc2ccccc21 | > 1990 | > 12500 | > 100000 |  | 
29 | CC(=O)N1CCC(N(C(=O)Nc2c(F)cccc2F)C(C)C)CC1 | 625 | > 12500 | > 100000 |  | 
30 | Cc1cc(S(=O)(=O)N2CCN(Cc3ccccc3)CC2)ccc1-n1cnnn1 | 1410 | 732 | > 10000 |  | 
31 | CC(=O)N(C1=C(N2CCOCC2)C(=O)c2ccccc2C1=O)c1ccc(I)cc1 | 108 | 73.7 | 10000 |  | 
32 | CCOc1ccccc1NC(=O)CN1CCN(C(=O)c2ccco2)CC1 | 12000 | 5460 | > 100000 |  | 
33 | CCn1cc(C(=O)N2CCC(C(=O)c3nccs3)CC2)c(C)n1 | > 418 | > 1250 | > 10000 |  | 
34 | CCOc1ccc(C(=O)C[N+]2=C(C)c3ccc(C)n3CC2)cc1 | 767 | 1630 | > 100000 |  | 
35 | COc1ccccc1NC(=O)CSc1nc2cccnc2n1-c1ccccc1OC | 848 | 833 | > 10000 |  | 
36 | COc1ccc(OC)c(-c2ccc(O)c(CNCC(C)C)c2)c1 | 773 | 950 | > 10000 |  | 
37 | COc1ccc2[nH]c3c(c2c1)CCNC3c1ccc(OC)c(CSc2nnc(-c3ccccc3)o2)c1 (centres undefined) | 1990 | 4050 | 7420 |  | 
38 | CCCOC(=O)C1=C(C)NC2=C(C(=O)CC(c3ccc(OC)cc3)C2)C1c1ccc(Cl)cc1Cl (centres undefined) | 16.2 | 36.9 | > 100000 |  | 
39 | CCN(CC)CCN1C(=O)c2ccccc2NC1c1ccc(Cl)cc1 (centres undefined) | 455 | 370 | 53300 |  | 
40 | Nc1ccc(-c2cc(N)n(-c3ccc(Oc4ccccc4)c(S(=O)(=O)O)c3)n2)cc1 | > 1250 | > 921 | > 10000 |  | 
41 | Cc1ccc(C=Cc2ccc(N(C)C)cc2)[n+](C)c1 |  |  | > 60500 | 400 | 397
42 | c1ccc(N=c2sc(-c3ccccc3)cn2CCCCCCn2cc(-c3ccccc3)sc2=Nc2ccccc2)cc1 | 525 | 739 | > 10000 |  | 
43 | O=C(Nc1ccc(Oc2ccccc2)cc1)NC(CN1CCCC1)c1ccccc1 (centres undefined) | 476 | 355 | 13600 |  | 
44 | COc1ccc2nc(NC(=O)c3ccc(C#N)cc3)sc2c1 | > 1250 | > 1060 | > 10000 |  | 
45 | COC(C(=NO)c1ccc(Cl)cc1)c1ccccc1 (centres undefined) | > 1610 | > 912 | > 10000 |  | 
46 | COc1cccc2c1[C@@H](OC)[C@@]13O[C@]1(C2=O)[C@H](O)[C@@H](C)[C@](O)(C(=O)[C@@H]1O[C@H]1C)[C@H]3O | 226 | 264 | 2820 |  | 

Row | Structure (SMILES) | EC50 (Plasmodium falciparum [1]; Plasmodium falciparum, W2) [nM] | EC50 (Plasmodium falciparum [2]; Plasmodium falciparum, 3D7) [nM] | CC50 [3] [nM] | EC50 (Plasmodium falciparum [1]) [nM] | EC50 (Plasmodium falciparum [2]) [nM]
47 | O=C1CSC(=Nc2ccc(F)c(Cl)c2)N1c1ccc(F)c(Cl)c1 | 26.7 | > 1250 | > 10000 |  | 
48 | Cc1ccc(-n2c(SCc3cccc(C)c3)nnc2C(Cc2ccccc2)NC(=O)NC(C)(C)C)cc1 (centres undefined) | 1010 | 735 | > 10000 |  | 
49 | CCN1CCC(NC2CCCc3c2[nH]c2ccc([N+](=O)[O-])cc32)CC1 (centres undefined) | 337 | 497 | 14500 |  | 
50 | C1CCC(NP2(NC3CCCCC3)=NP(NC3CCCCC3)(NC3CCCCC3)=NP(NC3CCCCC3)(NC3CCCCC3)=N2)CC1 | 3150 | 6610 | 41400 |  | 
51 | O=C(C[n+]1cc(-c2ccc(Cl)cc2)n2c1CCC2)c1ccc(C2CCCCC2)cc1 | 942 | 1310 | 35500 |  | 
52 | COc1cc(NC(C)CCCN(Cc2ccc(N(C)C)cc2)C(=O)C(Cl)Cl)c2ncccc2c1 (centres undefined) | 66.6 | 948 | > 6790 |  | 
53 | Cc1ccnc(NS(=O)(=O)c2ccc(NC(=O)C(C)C)cc2)n1 | 1690 | > 6150 | > 100000 |  | 
54 | CN(Cc1ccccc1)c1nc2c(c(=O)[nH]c(=O)n2C)n1CCCSc1ncccn1 | 5190 | > 12500 | > 100000 |  | 
55 | COc1ccc2nc(C)cc(N(c3ccc(Br)cc3)S(=O)(=O)c3ccc([N+](=O)[O-])cc3)c2c1 | 1050 | 647 | 6830 |  | 
56 | CCOc1ccc2[nH]c(=O)c(CN(CCN3CCCC3)C(=S)Nc3ccc(F)cc3)cc2c1 | 2510 | 1820 | > 100000 |  | 
57 | CCC(C)NC(=O)C1CSC(c2cccc(F)c2)N1C(=O)c1cc(OC)c(OC)c(OC)c1 (centres undefined) | 29.8 | > 1250 | > 654 |  | 
58 | COC(=O)c1c(NC(=O)c2c(-c3ccccc3)noc2C)sc2c1CCC2 | 1330 | 2980 | > 100000 |  | 
59 | Cc1cc(N2CCC(C)CC2)nc(-n2nc(C)cc2C)n1 | 382 | 1100 | > 100000 |  | 
60 | O=[N+]([O-])c1ccc(S(=O)(=O)N2CCN(C(=S)NCCc3ccccc3)CC2)cc1 | 97.1 | 97.2 | > 100000 |  | 
61 | Cc1ccc(NC(=O)N2CCN(CCN(Cc3ccc(F)cc3)C(=O)c3ccccc3C)CC2)cc1 | 818 | > 1740 | > 10000 |  | 
62 | COc1ccc(C2=C(Nc3ccc4oc5ccccc5c4c3)c3ccccc3C2=O)cc1 | 100 | 142 | > 100000 |  | 
63 | Cc1nc2sccn2c1-c1csc(Nc2ccccn2)n1 | 889 | 381 | > 100000 |  | 
64 | OC(COc1ccccc1CNCCN1CCCC1)CN1CCc2ccccc2C1 (centres undefined) | 1660 | 2200 | 63400 |  | 
65 | COc1ccc(-n2cc(-c3ccc(C)cc3)nc2SCC(=O)Nc2ccc(C)cc2)cc1 | > 1250 | 2230 | > 10000 |  | 
66 | O=C(NNC(=O)c1csnn1)c1ccc(Cl)cc1 | 1290 | 781 | > 100000 |  | 
67 | O=C(NCCCCNC(=O)Nc1cccc(C2=NCCN2)c1)Nc1cccc(C2=NCCN2)c1 | 67.2 | 203 | > 10000 |  | 
68 | Oc1ccc(-c2ccc(F)cc2)cc1CNC1CCCCC1 | 6.28 | 40.2 | 17400 |  | 
